Experiments:
[1] = test system: MDA-MB-231-GFP tumors; assay: MDA-MB-231-GFP orthotopic breast tumor growth and metastasis
Protocol: Human breast cancer cells MDA-MB-231 cells transfected with green fluorescent protein (MDA-MB-231-GFP) were inoculated into the mammary fat pad of female BALB/c nu/nu mice with Matrigel. Animals were monitored for tumor growth, and at week 4-5 post tumor cell inoculation, animals with tumors of 30-50 mm^3 were selected, randomized and divided into experimental groups. […] Tumor volume was measured weekly, starting at week 5. Additionally, tissue samples of lung, liver, and spleen were taken to assess metastasis.
Animals were inoculated with MDA-MB-231-GFP cells as described above, then selected and randomized, and divided into experimental groups of 8 animals each. […] Tumor volume was measured weekly, starting at week 5.
Tumor tissue samples were collected on day 35 post-treatment for immunohistochemical analysis. Paraffin-embedded tissue samples were sectioned, stained with CD31 (Santa Cruz Biotechnology Inc., Santa Cruz, Calif., USA), Ki-67 (DAKO, Carpinteria, Calif., USA), MAPK, FAK, phosphoMAPK or phosphoFAK antibodies, visualized with biotinylated secondary antibodies using a VECTASTAIN® ABC (Vector Laboratories Inc., Burlingame, Calif., USA), and lightly counterstained with haemotoxylin.

[2] = test system: B16F1 melanoma tumors; assay: B16F1 melanoma subcutaneous tumor growth; format: in vivo, mouse; settings: M0038-F01 10, 1 or 0.1 mg/kg Q2d IP; doxorubicin 5 mg/kg weekly IP
Excerpt: B16F1 melanoma cells were implanted into Female C57/BL6 (CR) mice (4-6 Weeks old) mice by subcutaneous injection.

[3] = test system: MDA-MB-435 GFP tumors; assay: MDA-MB-435 GFP orthotopic breast tumor growth; format: in vivo, mouse
Excerpt: Fragments of MDA-MB-435 GFP (MDA-MB-435 cells expressing green fluorescent protein) tumors were transplanted by surgical orthotopic implantation (SOI) into the right second mammary gland. Treatment was started on day 15 after SOI when the volume of primary tumors reached about 85 mm^3.
Mice were sacrificed at day 61 after the start of the treatment and tumors (primary and metastases) were identified by fluorescent imaging. Additionally, primary tumors were excised and weighed. […] However, M0038-F01 was not effective in reducing lymph node or lung metastases in this experiment.

[4] = test system: PC3 prostate tumors; assay: PC3 prostate tumor growth; format: in vivo, mouse; settings: M0038-F01 10, 1 or 0.1 mg/kg Q2d IP; taxotere 10 mg/kg weekly IP; A2 10 mg/kg Q2d
Excerpt: PC3 prostate cancer cells were implanted into male nude mice by subcutaneous injection.

[5] = test system: activation of pro-MMP-2 by MMP-14 in PMA-activated HT-1080 cells; assay: Gelatin zymogram, pro-MMP-2 activation in HT-1080 cells; format: cell-based, human; settings: gelatin zymography of conditioned media after 3 days; antibodies 10 μg/ml, GM6001 10 μM
Protocol: The ability of anti-MMP-14 IgGs to inhibit the activation of pro-MMP-2 by MMP-14 was examined by gelatin zymogram experiments performed with PMA-activated HT-1080 cells. M0033-H07 and M0038-F01 were tested for their ability to inhibit MMP-14 in this assay. HT1080 cells (well-known to express MMP-14 and MMP-2) were seeded at 5×10^5 cells/well at Day 0. […] HT-1080 cells cultured in the presence of 20 ng/ml of PMA were used as a positive control.
After 3 days of incubation, conditioned media were collected and gelatinolytic activities were analyzed by gelatin zymography as described previously (Maquoi et al, J Biol Chem 2000; 275:11368-78). When HT-1080 cells are activated with a phorbol ester, pro-MMP-2 is activated into MMP-2 (lane 1).

[6] = immunostaining of tumor tissue, day 35
[7] = immunostaining of tumor tissue, day 35 post-treatment, image analysis

COc1cccc2c1C(=O)c1c(O)c3c(c(O)c1C2=O)C[C@@](O)(C(=O)CO)C[C@@H]3O[C@H]1C[C@H](N)[C@H](O)[C@H](C)O1 [DOX, doxorubicin]
metastases to spleen ([1]; M0038-F01 10 mg/kg Q2d IP, DOX 5 mg/kg weekly IP): reduced in DOX and M0038-F01 treated animals, but the difference was not statistically significant | lung and liver metastases ([1]; M0038-F01 10 mg/kg Q2d IP, DOX 5 mg/kg weekly IP, compared to controls): statistically significant reduction | tumor growth (tumor volume) ([1]; M0038-F01 or A2 10 mg/kg Q2d IP, DOX 5 mg/kg weekly IP, five weeks): substantially inhibited | CD31 and KI67 levels compared to vehicle and A2 controls [1, 6]: slightly reduced | phospho-FAK level [1, 6]: 4±1.2 A.U. | phospho-MAP kinase level [1, 6]: 5.8±1.9 A.U. | total FAK level [1, 6]: 6±1 A.U. | total MAP kinase level [1, 6]: 5.8±1.9 A.U. | CD31 [1, 7]: 4.08 ± 1.28 | Ki67 [1, 7]: 5.2 ± 0.84 | tumor growth [2]: effective in reducing tumor growth

CC(=O)O[C@@]12CO[C@@H]1C[C@H](O)[C@@]1(C)C(=O)[C@H](O)C3=C(C)[C@@H](OC(=O)[C@H](O)[C@@H](NC(=O)OC(C)(C)C)c4ccccc4)C[C@@](O)([C@@H](OC(=O)c4ccccc4)[C@H]21)C3(C)C [Taxotere, taxotere, reference compound]
Tumor Mass (±SD) ([3]; 10 mg/kg (F01 and A2 Q2d IP; taxotere QW×3 i.v.), excised primary tumor, day 61, * p≦0.05 compared to Control): 0.59 ± 0.59* | tumor volume ([3]; M0038-F01 1 or 10 mg/kg Q2d IP, taxotere 10 mg/kg QW×3 i.v.): reduction of tumor volume | tumor growth (tumor volume) [4]: extremely effective

CNC(=O)[C@H](Cc1c[nH]c2ccccc12)NC(=O)[C@@H](CC(=O)NO)CC(C)C [GM6001, reference compound]
pro-MMP-2 activation by MMP-14 [5]: completely abolished | pro-MMP-9 expression [5]: paradoxically stimulated

From US8106168B2, “Metalloproteinase binding proteins” (Dyax Corp., priority 2005, dated 2012)
